In PubChem BioAssay AID248 (DTP/NCI, 2004) one finds T/C data, which are given here for 22 compounds.

Where “and” joins values, the source holds several entries; their conditions need not be identical. Equal values may be shown once. Toxic doses and inconclusive results are not listed.

The subject of the assay is L1210 leukemia ip in BDF1 mice, survival T/C. As to the kind of experiment: NCI In Vivo Anticancer Drug Screen. Data for tumor model L1210 Leukemia (intraperitoneal) in B6D2F1 (BDF1) mice. The following applies: endpoint: mean survival time, higher = longer survival. A digest of the protocol: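 Each compound was tested against a transplantable tumor grown in mice. The endpoint was survival, with treated animals benchmarked against vehicle controls as a simple ratio.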

[1] abbreviates: dose: 50.0 mg/kg/injection, schedule: Q01DX009 (ip), vehicle: Klucel (hydroxypropylcellulose) (HPC).
[2] abbreviates: dose: 100.0 mg/kg/injection, schedule: Q01DX009 (ip), vehicle: Klucel (hydroxypropylcellulose) (HPC).
Setting [3] is: dose: 100.0 mg/kg/injection, schedule: Q01DX009 (ip), vehicle: saline with Tween-80.
The mark [4] stands for this setting: dose: 200.0 mg/kg/injection, schedule: Q01DX009 (ip), vehicle: saline with Tween-80.
Where [5] appears, read: dose: 100.0 mg/kg/injection, schedule: Q01DX001 (ip), vehicle: saline.
Where [6] appears, read: dose: 100.0 mg/kg/injection, schedule: Q04DX002 (ip), vehicle: Klucel (hydroxypropylcellulose) (HPC).
The mark [7] stands for this setting: dose: 100.0 mg/kg/injection, schedule: Q04DX003 (ip), vehicle: saline with Tween-80.
The mark [8] stands for this setting: dose: 200.0 mg/kg/injection, schedule: Q04DX002 (ip), vehicle: Klucel (hydroxypropylcellulose) (HPC).
Setting [9] is: dose: 200.0 mg/kg/injection, schedule: Q04DX003 (ip), vehicle: saline with Tween-80.
Setting [10] is: dose: 400.0 mg/kg/injection, schedule: Q04DX002 (ip), vehicle: Klucel (hydroxypropylcellulose) (HPC).
Where [11] appears, read: dose: 400.0 mg/kg/injection, schedule: Q04DX003 (ip), vehicle: saline with Tween-80.
Setting [12] is: dose: 75.0 mg/kg/injection, schedule: Q01DX001 (ip), vehicle: saline.

For the compound `O=C1c2ccccc2C(=O)c2c1ccc1c2CCCC1`, the T/C runs as follows: under setting [1], 91 % of control; under setting [2], 94 % of control; (dose: 200.0 mg/kg/injection, schedule: Q01DX009 (ip), vehicle: Klucel (hydroxypropylcellulose) (HPC)) 100 % of control.
In the case of `COc1ccc(C(c2ccccc2)N(N=O)C(=O)c2ccccc2)cc1` (stereo not drawn), the T/C (dose: 38.0 mg/kg/injection, schedule: Q04DX002 (ip), vehicle: Klucel (hydroxypropylcellulose) (HPC)) was 94 % of control; the T/C (dose: 75.0 mg/kg/injection, schedule: Q04DX002 (ip), vehicle: Klucel (hydroxypropylcellulose) (HPC)) is 94 % of control; the T/C (dose: 150.0 mg/kg/injection, schedule: Q04DX002 (ip), vehicle: Klucel (hydroxypropylcellulose) (HPC)) was 94 % of control.
`Cc1ccc(N=Nc2ccc(C)cc2NC(=O)c2c(Br)c(Br)c(Br)c(Br)c2C(=O)O)cc1`: the T/C is 93 % of control under setting [3] and 93 % of control under setting [4].
As for `Cc1c(C)c2ccccc2[nH]c1=O`, the T/C was 88 % of control (dose: 100.0 mg/kg/injection, schedule: Q01DX001 (ip), vehicle: carboxymethylcellulose (CMC)); 100 % of control under setting [5]; 88 % of control (dose: 200.0 mg/kg/injection, schedule: Q01DX001 (ip), vehicle: carboxymethylcellulose (CMC)); 95 % of control (dose: 200.0 mg/kg/injection, schedule: Q01DX001 (ip), vehicle: saline); 96 % of control (dose: 400.0 mg/kg/injection, schedule: Q01DX001 (ip), vehicle: carboxymethylcellulose (CMC)); 95 % of control (dose: 400.0 mg/kg/injection, schedule: Q01DX001 (ip), vehicle: saline).
With `COC1OC2COCOC2C(OS(=O)(=O)c2ccc(C)cc2)C1OS(=O)(=O)c1ccc(C)cc1` (stereo not drawn), the T/C runs as follows: under setting [6], 100 % of control; under setting [7], 89 % of control; under setting [8], 95 % of control; under setting [9], 86 % of control; under setting [10], 92 % of control.
For the compound `CC1CCC2CON(C(C)(C)C)C2C1` (stereo not drawn), the T/C runs as follows: (dose: 50.0 mg/kg/injection, schedule: Q01DX009 (ip), vehicle: saline with Tween-80) 106 % of control; under setting [3], 107 % of control; under setting [7], 103 % of control; under setting [9], 97 % of control and 101 % of control; under setting [11], 94 % of control.
With `CC(C)(C)C(=O)[CH-]C(=O)C(C)(C)C.CC(C)(C)C(=O)[CH-]C(=O)C(C)(C)C.CC(C)(C)C(=O)[CH-]C(=O)C(C)(C)C.CN(C)C=O.[Er+3]`, the T/C was 105 % of control (dose: 100.0 mg/kg/injection, schedule: Q04DX002 (ip), vehicle: saline with Tween-80); 94 % of control (dose: 200.0 mg/kg/injection, schedule: Q04DX002 (ip), vehicle: saline with Tween-80); 94 % of control (dose: 400.0 mg/kg/injection, schedule: Q04DX002 (ip), vehicle: saline with Tween-80).
Take `Cc1c(C)c2c(c(C)c1O)CCC(C)(CCCC(C)CCCC(C)CCCC(C)C)O2` (stereo not drawn): the T/C runs as follows: (dose: 31.2 mg/kg/injection, schedule: Q01DX009 (ip), vehicle: carboxymethylcellulose (CMC)) 107 % of control; (dose: 62.5 mg/kg/injection, schedule: Q01DX009 (ip), vehicle: carboxymethylcellulose (CMC)) 101 % of control; under setting [7], 91 % of control; (dose: 125.0 mg/kg/injection, schedule: Q01DX009 (ip), vehicle: carboxymethylcellulose (CMC)) 100 % of control; (dose: 202.0 mg/kg/injection, schedule: Q04DX003 (ip), vehicle: saline with Tween-80) 91 % of control; (dose: 250.0 mg/kg/injection, schedule: Q01DX009 (ip), vehicle: carboxymethylcellulose (CMC)) 100 % of control. In addition, the T/C under setting [11] is 93 % of control.
Turning to `CCN(CC)C(=O)Nc1cccc(N)c1`, the T/C runs as follows: under setting [6], 97 % of control; under setting [8], 101 % of control; under setting [10], 97 % of control.
As for `O=C(O)Cc1csc2ccccc12`, the T/C is 100 % of control (dose: 100.0 mg/kg/injection, schedule: Q01DX001 (ip), vehicle: other); 97 % of control (dose: 200.0 mg/kg/injection, schedule: Q01DX001 (ip), vehicle: other); 103 % of control (dose: 400.0 mg/kg/injection, schedule: Q01DX001 (ip), vehicle: other).
As to `CCC1C(=O)NCCNC1=O`, the T/C reads like this: under setting [12], 106 % of control; (dose: 150.0 mg/kg/injection, schedule: Q01DX001 (ip), vehicle: saline) 93 % of control; (dose: 300.0 mg/kg/injection, schedule: Q01DX001 (ip), vehicle: saline) 96 % of control.
Consider `[O-][N+](=Nc1ccc2c(c1)Cc1ccccc1-2)c1ccc2c(c1)Cc1ccccc1-2`, for which the T/C under setting [7] was 96 % of control, the T/C under setting [9] was 92 % of control and the T/C under setting [11] is 91 % of control.
Consider `CCC1(CC)COC(C)(C(=O)O)OC1`, for which the T/C was 96 % of control and 95 % of control under setting [3]; 89 % of control and 101 % of control under setting [4]; 90 % of control (dose: 400.0 mg/kg/injection, schedule: Q01DX009 (ip), vehicle: saline with Tween-80).
In the case of `CCCCOP(=O)(OCCCC)O/C(C)=C(\C)OP(=O)(OCCCC)OCCCC`, the T/C is 92 % of control (dose: 87.5 mg/kg/injection, schedule: Q01DX009 (ip), vehicle: carboxymethylcellulose (CMC)) and 98 % of control (dose: 175.0 mg/kg/injection, schedule: Q01DX009 (ip), vehicle: carboxymethylcellulose (CMC)).
Regarding `O=C1c2ccccc2-c2ccccc2C1(Cl)Cl`, under setting [12], the T/C is 105 % of control.
For `Cc1cc(CSC2=NCCCN2)c(C)cc1CSC1=NCCCN1`, the T/C is 88 % of control (dose: 1.56 mg/kg/injection, schedule: Q01DX009 (ip), vehicle: saline); 103 % of control (dose: 3.13 mg/kg/injection, schedule: Q01DX009 (ip), vehicle: saline); 92 % of control (dose: 6.25 mg/kg/injection, schedule: Q01DX009 (ip), vehicle: saline).
With `O=c1cc2ccccc2c(O)[nH]1`, the T/C was 107 % of control (dose: 25.0 mg/kg/injection, schedule: Q01DX001 (ip), vehicle: saline); 111 % of control (dose: 50.0 mg/kg/injection, schedule: Q01DX001 (ip), vehicle: saline); 100 % of control (dose: 100.0 mg/kg/injection, schedule: Q01DX001 (ip), vehicle: Klucel (hydroxypropylcellulose) (HPC)); 114 % of control under setting [5].
With `COc1cc(C(=O)NC(=S)NCc2ccncc2)cc(OC)c1OC`, the T/C reads like this: under setting [6], 96 % of control; under setting [8], 88 % of control.
Regarding `COc1cc(OC)c(Cl)c(OC)c1`, the T/C is 120 % of control (dose: 100.0 mg/kg/injection, schedule: Q01DX009 (ip), vehicle: other); 101 % of control (dose: 100.0 mg/kg/injection, schedule: Q04DX003 (ip), vehicle: saline); 103 % of control (dose: 200.0 mg/kg/injection, schedule: Q01DX009 (ip), vehicle: other); 100 % of control (dose: 200.0 mg/kg/injection, schedule: Q04DX003 (ip), vehicle: saline); 108 % of control (dose: 400.0 mg/kg/injection, schedule: Q01DX009 (ip), vehicle: other); 101 % of control (dose: 400.0 mg/kg/injection, schedule: Q04DX003 (ip), vehicle: saline).
In the case of `CN(N)C(=O)Nc1ccccc1`, the T/C was 100 % of control (dose: 75.0 mg/kg/injection, schedule: Q01DX001 (ip), vehicle: carboxymethylcellulose (CMC)) and 100 % of control (dose: 150.0 mg/kg/injection, schedule: Q01DX001 (ip), vehicle: carboxymethylcellulose (CMC)).
With `COc1ccc(NC(=O)Oc2ccccc2C(N)=O)c(OC)c1`, the T/C reads like this: (dose: 25.0 mg/kg/injection, schedule: Q01DX009 (ip), vehicle: Klucel (hydroxypropylcellulose) (HPC)) 109 % of control; under setting [1], 102 % of control; under setting [2], 103 % of control and 112 % of control.
Take `NS(=O)(=O)c1ccc(N=Nc2nc3[nH]cnc(=S)c3[nH]2)cc1`: the T/C is, setting by setting: (dose: 8.0 mg/kg/injection, schedule: Q01DX009 (ip), vehicle: saline) 116 % of control; (dose: 15.0 mg/kg/injection, schedule: Q01DX009 (ip), vehicle: saline) 121 % of control; (dose: 62.5 mg/kg/injection, schedule: Q01DX015 (ip), vehicle: saline) 115 % of control; (dose: 125.0 mg/kg/injection, schedule: Q01DX015 (ip), vehicle: saline) 121 % of control; (dose: 250.0 mg/kg/injection, schedule: Q01DX009 (ip), vehicle: saline) 104 % of control; (dose: 250.0 mg/kg/injection, schedule: Q01DX015 (ip), vehicle: saline) 153 % of control.
